Measurements: ChEMBL document CHEMBL1152913, “Discovery of 4-azaindoles as novel inhibitors of c-Met kinase” (Bioorg Med Chem Lett, 2009)
Blank lines part the entries; values can stand above or below the compound they belong to. Active and inactive are the calls of the source. No cut-off for these calls is given here.

Experiments:
Hepatocyte = assay: Clearance rate in hepatocytes; type: ADME, cell-based, Liver
[1] = target: T1, Hepatocyte growth factor receptor (Homo sapiens, UniProt P08581); assay: Inhibition of human recombinant His-tagged c-Met at 20 uM by TR-FRET assay
[2] = target: T1, Hepatocyte growth factor receptor
Description: (§1) Inhibition of human recombinant His-tagged c-Met by TR-FRET assay

[3] = target: T2, Tyrosine-protein kinase Mer (Homo sapiens) (UniProt Q12866); assay: Inhibition of Mer assessed as residual activity at 20 uM
T2 sequence (whole entry): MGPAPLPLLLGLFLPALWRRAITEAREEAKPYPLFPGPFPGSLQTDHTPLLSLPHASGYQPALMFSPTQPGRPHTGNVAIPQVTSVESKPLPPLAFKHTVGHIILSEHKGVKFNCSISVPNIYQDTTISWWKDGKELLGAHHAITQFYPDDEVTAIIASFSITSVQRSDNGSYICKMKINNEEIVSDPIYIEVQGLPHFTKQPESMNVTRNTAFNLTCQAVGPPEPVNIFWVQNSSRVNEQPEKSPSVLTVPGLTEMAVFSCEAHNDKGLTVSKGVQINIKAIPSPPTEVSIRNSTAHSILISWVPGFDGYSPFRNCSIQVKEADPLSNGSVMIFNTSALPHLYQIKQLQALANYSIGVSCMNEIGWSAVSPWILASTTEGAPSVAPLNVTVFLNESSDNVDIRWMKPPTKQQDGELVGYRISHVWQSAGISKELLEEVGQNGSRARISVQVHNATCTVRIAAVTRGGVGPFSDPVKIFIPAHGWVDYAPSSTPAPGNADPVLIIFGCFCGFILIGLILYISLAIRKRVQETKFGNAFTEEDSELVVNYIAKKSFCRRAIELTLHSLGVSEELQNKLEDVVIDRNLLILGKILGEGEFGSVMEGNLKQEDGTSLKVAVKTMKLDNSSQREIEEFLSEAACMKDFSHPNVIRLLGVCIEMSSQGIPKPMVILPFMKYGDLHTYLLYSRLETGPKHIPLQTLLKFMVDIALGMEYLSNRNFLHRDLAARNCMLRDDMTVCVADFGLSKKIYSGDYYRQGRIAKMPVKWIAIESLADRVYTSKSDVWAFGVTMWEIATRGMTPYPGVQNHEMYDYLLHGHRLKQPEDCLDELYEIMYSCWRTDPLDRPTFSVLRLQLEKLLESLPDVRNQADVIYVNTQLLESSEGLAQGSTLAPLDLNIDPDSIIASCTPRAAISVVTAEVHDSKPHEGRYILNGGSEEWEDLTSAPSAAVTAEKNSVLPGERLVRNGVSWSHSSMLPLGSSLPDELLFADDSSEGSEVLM

[4] = target: T1, Hepatocyte growth factor receptor; assay: Inhibition of c-Met phosphorylation in human MKN45 cells after 1 hr; type: cell-based, MKN-45
[5] = target: T1, Hepatocyte growth factor receptor; remark: listed apart in the source
Description: as §1

[6] = target: T1, Hepatocyte growth factor receptor; assay: Inhibition of c-Met phosphorylation in human A549 cells after 1 hr; type: cell-based
[7] = target: High affinity nerve growth factor receptor (Homo sapiens) (UniProt P04629); assay: Inhibition of TrkA assessed as residual activity at 20 uM
[8] = target: RAC-alpha serine/threonine-protein kinase (Homo sapiens) (UniProt P31749); assay: Inhibition of AKT assessed as residual activity at 20 uM
[9] = target: RAC-alpha serine/threonine-protein kinase (Homo sapiens) (UniProt P31749); assay: Inhibition of AKT phosphorylation in human MKN45 cells after 1 hr by Western blot analysis; type: cell-based; settings: MKN-45
[10] = target: Mitogen-activated protein kinase 3 (Homo sapiens) (UniProt P27361); assay: Inhibition of ERK1 assessed as residual activity at 20 uM
[11] = target: Macrophage-stimulating protein receptor (Homo sapiens) (UniProt Q04912); assay: Inhibition of Ron assessed as residual activity at 20 uM
[12] = target: Mitogen-activated protein kinase 3 (Homo sapiens) (UniProt P27361); assay: Inhibition of ERK1 phosphorylation in human MKN45 cells after 1 hr by Western blot analysis; type: cell-based; settings: MKN-45
[13] = target: Mitogen-activated protein kinase 1 (Homo sapiens) (UniProt P28482); assay: Inhibition of ERK2 phosphorylation in human MKN45 cells after 1 hr by Western blot analysis; type: cell-based; settings: MKN-45
[14] = target: Mitogen-activated protein kinase 1 (Homo sapiens) (UniProt P28482); assay: Inhibition of ERK2 assessed as residual activity at 20 uM
[15] = target: Vascular endothelial growth factor receptor 2 (Homo sapiens) (UniProt P35968); assay: Inhibition of KDR assessed as residual activity at 20 uM

CL (Hepatocyte): 0.3 s⁻¹
Structure (SMILES): O=S(=O)(c1c(Cl)nc2sccn12)n1ccc2ncc(-c3cnn(C4CCNCC4)c3)cc21

inhibition [1]: 16%
Structure (SMILES): O=[N+]([O-])c1ccc(S(=O)(=O)n2ccc3ncccc32)cc1

Continued, compound first:

Structure (SMILES): c1ccc(Cn2ccc3ncccc32)cc1
IC50 [2]: Inactive

Structure (SMILES): O=S(=O)(c1cccc2nonc12)n1ccc2ncc(-c3cnn(C4CCNCC4)c3)cc21
Activity [3]: 19%
IC50 [4]: 200 nM
IC50 [5]: 9 nM
IC50 [6]: 130 nM
Activity [7]: 18%
Activity [8]: 88%
inhibition [9]: Active
Activity [10]: 88%
Activity [11]: 29%
inhibition [12]: Active
inhibition [13]: Active
inhibition [14]: inactive
Activity [15]: 3%

Structure (SMILES): O=S(=O)(c1c(Cl)nc2sccn12)n1ccc2ncc(N3CCNCC3)cc21
CL (Hepatocyte): 1 s⁻¹
